Measured values as given in article PMC3302934 (Journal of Acquired Immune Deficiency Syndromes (1999), 2012).

Legend:
[1] = test system: Kaposi sarcoma; assay: Clinical response of KS to rapamycin; format: in vivo, human
[2] = test system: interleukin-6 (IL6); assay: Plasma IL6 by ELISA; format: in vivo, human; details: baseline median 8.22pg/ml
[3] = test system: HIV; details: in culture; cited from earlier work
[4] = test system: cytochrome P450 3A4 (CYP3A4); details: cited from earlier work
[5] = test system: phospho-RPS6 (pRPS6); assay: IHC of KS biopsies for phospho-RPS6; format: in vivo, human
[6] = test system: KSHV latency associated nuclear antigen (LANA); assay: IHC of KS biopsies for KSHV LANA; format: in vivo, human; details: KS biopsies on treatment vs baseline
[7] = Rapamycin trough blood concentrations; format: in vivo, human
[8] = test system: vascular endothelial growth factor (VEGF); assay: Plasma VEGF by ELISA; format: in vivo, human
[9] = test system: P-glycoprotein; details: cited from earlier work
[10] = test system: HIV; assay: HIV viral load monitoring; format: in vivo, human; details: during rapamycin treatment with ART
[11] = test system: CD4 T-lymphocyte counts; assay: CD4+ T-lymphocyte count monitoring; format: in vivo, human; details: 6 study participants with follow-up tests; median baseline 826
[12] = test system: Kaposi sarcoma; details: HIV-uninfected renal allograft recipients; trough 6-10ng/ml; cited from earlier work
[13] = test system: phospho-Akt (Ser473) and phospho-Akt (T308); assay: IHC of KS biopsies for phospho-Akt; format: in vivo, human; details: KS biopsies on treatment vs baseline
[14] = Safety and adverse event monitoring
[15] = test system: KSHV; assay: KSHV plasma viral load by quantitative real-time PCR; format: in vivo, human
[16] = test system: Ki-67; assay: IHC of KS biopsies for Ki-67; format: in vivo, human; details: KS biopsies on treatment vs baseline

CO[C@H]1C[C@@H]2CC[C@@H](C)[C@@](O)(O2)C(=O)C(=O)N2CCCC[C@H]2C(=O)O[C@H]([C@H](C)C[C@@H]2CC[C@@H](O)[C@H](OC)C2)CC(=O)[C@H](C)/C=C(\C)[C@@H](O)[C@@H](OC)C(=O)[C@H](C)C[C@H](C)/C=C/C=C/C=C/1C [rapamycin]
number of patients with stable disease as best response ([1]; of seven): Three
number of patients with partial KS response ([1]; of seven, all receiving PI/r regimens): Three
Best Response of KS to Rapamycin ([1]; patient 001, Lopinavir/r ART, maintenance 0.2 mg biw): Partial
Best Response of KS to Rapamycin ([1]; patient 002, Atazanavir/r ART, maintenance 0.2 mg biw): Partial
Best Response of KS to Rapamycin ([1]; patient 003, Atazanavir/r ART, maintenance 0.3 mg tiw): Stable
Best Response of KS to Rapamycin ([1]; patient 004, Nevirapine ART, maintenance 2.8 mg daily): Progression
Best Response of KS to Rapamycin ([1]; patient 005, Lopinavir/r ART, maintenance 0.1 mg biw): Partial
Best Response of KS to Rapamycin ([1]; patient 006, Efavirenz ART, maintenance 6.7 mg daily): Stable
Best Response of KS to Rapamycin ([1]; patient 007, Efavirenz ART, maintenance 2.3 mg daily): Stable
response duration ([1]; three responding patients): 43 to 50 weeks
time to partial KS response ([1]; three responding patients): 3 to 9 weeks
changes in plasma IL6 concentrations during treatment [2]: No significant changes
effect on HIV infectivity and transcription [3]: inhibits HIV infectivity and transcription in culture
substrate status for CYP3A4 [4]: substrate
overall changes from baseline in staining scores (pRPS6, phospho-Akt) ([5]; on-treatment KS biopsies, all patients, score 0 to 4): no significant changes
pRPS6 reactivity within KS tumor cells and overlying epithelium ([5]; subject #5, after 50 days on drug vs baseline): decreased pRPS6 reactivity
pRPS6 staining compared to baseline ([5]; three of four subjects biopsied at day 50 or later, all on PI/r-based ART): decreased pRPS6 staining
changes in LANA staining [6]: no significant changes
time for blood levels to decline to acceptable levels after stopping rapamycin ([7]; first patient, ritonavir-boosted lopinavir regimen, from 172ng/mL): three
concentration at 7 days ([7]; human, whole blood, oral, 2 mg): 123 ng/mL
concentration at 14 days ([7]; human, whole blood, oral, 2 mg): 172 ng/mL
Maximum Rapamycin Trough Level by LCMSMS ([7]; patient 001, Lopinavir/r ART, initial 2 mg daily): 172 ng/mL
Maximum Rapamycin Trough Level by LCMSMS ([7]; patient 002, Atazanavir/r ART, initial 0.3 mg biw): 64.4 ng/mL
Maximum Rapamycin Trough Level by LCMSMS ([7]; patient 003, Atazanavir/r ART, initial 0.3 mg biw): 16.8 ng/mL
Maximum Rapamycin Trough Level by LCMSMS ([7]; patient 004, Nevirapine ART, initial 4.9 mg daily): 13.1 ng/mL
Maximum Rapamycin Trough Level by LCMSMS ([7]; patient 005, Lopinavir/r ART, initial 0.4 mg biw): 19.2 ng/mL
Maximum Rapamycin Trough Level by LCMSMS ([7]; patient 006, Efavirenz ART, initial 4.5 mg daily): 7.4 ng/mL
Maximum Rapamycin Trough Level by LCMSMS ([7]; patient 007, Efavirenz ART, initial 3.7 mg daily): 11.9 ng/mL
changes in plasma VEGF concentrations during treatment [8]: No significant changes
substrate status for P-glycoprotein [9]: substrate
changes in HIV VL [10]: no consistent changes
CD4 counts during treatment [11]: > 400 cells/μL
KS outcome after change from cyclosporin A-based regimen to rapamycin [12]: KS regressed
changes in Akt phosphorylation at T308 or Ser473 [13]: no significant changes
grade of most adverse events ([14]; all seven patients experienced adverse events): most were grade 1
serious adverse event ([14]; patient #4, Nevirapine ART): extensive grade 3 superficial vein thrombus requiring anticoagulation, considered possibly related to rapamycin
infectious adverse events ([14]; patient #5, pneumonia and dermatomal Herpes zoster): 2 separate grade 2 infectious episodes without neutropenia
infectious adverse events ([14]; patient #6, without neutropenia, resolved without treatment): grade 2 upper respiratory infection
overall tolerability ([14]; seven HIV-infected KS patients on ART, trough target 5-10 ng/mL): generally well tolerated
changes in KSHV VL during rapamycin treatment [15]: no significant changes
median change in KSHV VL during treatment ([15]; baseline median 214, P=0.156): -138.8 copies/ml
changes in Ki-67 staining [16]: no significant changes
